Assay results reported in US20170231911A1, “METHODS AND COMPOSITIONS FOR IMPROVING OUTCOMES OF LIPOSOMAL CHEMOTHERAPY” (Merrimack Pharmaceuticals, Inc., priority 2013, published 2017).

Tests used:
[1] = tested on: BT474-M3 tumor
Method: Slides are air-dried and mounted with ProLong® Gold with Hoechst® stain to counterstain nuclei. Cleaved caspase 3, γ-H2AX, cleaved PARP and cytokeratin stainings are performed on FFPE-sections (5 μm thick). After deparaffinization and rehydration, heat-mediated antigen retrieval is performed on a in a pre-treatment module (Thermo Scientific, Waltham, Mass.) in citrate buffer (pH 6) for 25 min at 102° C. After antigen retrieval, slides are stained on a Lab Vision Autostainer® 360 (Thermo Scientific). Endogenous peroxidase activity is blocked with Peroxidazed® 1 (10 min at RT) followed by a washing step with TBST and a protein blocking step with Background Sniper (10 min at RT). Next, slides are incubated with the primary antibodies diluted in Da Vinci Green or Signal Stain® Antibody diluent for 1 hr at room temperature (RT). After washing, slides are incubated with secondary antibodies for 30 min at RT Antibodies used are goat anti-mouse Alexa Fluor® 488 and goat anti-rabbit Alexa Fluor® 647, diluted in Da Vinci Green, for the γ-H2AX and cleaved caspase 3 antibodies, respectively; and EnVision®+ System-HRP labeled Polymer anti-rabbit (for the signal amplification of the cleaved PARP signal) containing the secondary antibody for cytokeratin (goat anti-mouse Alexa Fluor® 555) for the cleaved PARP and cytokeratin double staining. After washing, for the signal amplification of cleaved PARP, samples are incubated with TSA™ Cyanine 5 Tyramide Reagent for 10 min at RT. Slides are washed and counterstained with Hoechst followed by a wash step and mounting with ProLong® Gold. Slides are imaged on an Aperio® FL slide scanner at 20× magnification.
Images are analyzed using rulesets written in Definiens® Developer XD 2 (Definiens, Munich, Germany). Images are analyzed as full tumor or heart tissues. […]
The extent of cleaved PARP positive tumor cells is determined in cleaved PARP and cytokeratin double stained tumor sections. […]

[2] = tested on: BT474-M3 breast cancer tumor cells; details: cyclophosphamide 170 mg/kg pre-dose
Method: NCR/nu mice are inoculated with 15×10^6 BT474-M3 cells (into the mammary fat pad, in 50 μl media), 20×10^6 MDA-MB-453 (s.c. into the right flank of the mouse in 100 μl of media) or 10×10^6 MCF-7 HER2 cells (into the mammary fat pad, in 50 μl media). […] When tumors reached an average volume of 200-300 mm^3, mice are pre-dosed or not with cyclophosphamide (i.p. 170 mg/kg) at different time points as indicated. Mice are subsequently dosed with DiI5-labeled anthracycline-loaded anti-HER2 immunoliposome-targeted liposomal doxorubicin (3 mg/kg), DiI5-labelled liposomal doxorubicin PLD (3 mg/kg), or free doxorubicin all at (3 mg/kg). […]
Tumor, heart and the dorsal skin are collected and frozen at −80° for further HPLC doxorubicin quantification.
Tumors, hearts and dorsal skin are weighed and minced. […] Supernatants and doxorubicin standards are analyzed by HPLC (Dionex) using a C18 reverse phase column (Synergi Polar-RP 80A 250×4.60 mm 4 μm column). […] The doxorubicin peak is detected at 6.9 min using an in-line fluorescence detector excited at 485 nm, and emitting at 590 nm. The extraction efficiency of doxorubicin from tumor, heart and skin tissues is estimated using internal control tissues spiked with known amounts of doxorubicin, and sample readings are corrected to account for the extraction efficiency. […]

[3] = 96 hours after cyclophosphamide treatment

O.O=P1(N(CCCl)CCCl)NCCCO1 (stereo not shown) [cyclophosphamide, 2-[bis(2-chloroethyl)amino]tetrahydro-2H-1,3,2-oxazaphosphorine 2-oxide monohydrate]
effect on non-tumor cells [1, 3]: non-tumor cells were unaffected
interstitial space vs control [1, 3]: significantly more interstitial space than the control cell sample
tumor cell apoptosis, tumor cell density and interstitial space ([1]; tissue harvested 48 hr-120 hr post cyclophosphamide): induction of tumor cell apoptosis and consequent reduction of tumor cell density and increase in interstitial space
effect of cyclophosphamide on non-target organs such as skin or heart [2]: no effects were observed
